Assay results published in PubChem BioAssay AID330 (DTP/NCI, 2004).
“And” between values parts separate entries of the source, which are not always exact repeats. Equal values may be shown once. Toxic doses and inconclusive results are not listed.

System: P388 leukemia ip, CD2F1 mice, survival T/C
Assay: NCI In Vivo Anticancer Drug Screen. Data for tumor model P388 Leukemia (intraperitoneal) in CD2F1 (CDF1) mice
Details: endpoint: median survival time, higher = longer survival
Outline: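 Mice carrying the transplanted tumor received test compound or vehicle. Survival was recorded in each group, and the value is the treated-group measurement divided by that of the vehicle-treated control group.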

[1] = dose: 50.0 mg/kg/injection, schedule: Q01DX005 (ip), vehicle: saline with Tween-80
[2] = dose: 100.0 mg/kg/injection, schedule: Q01DX005 (ip), vehicle: saline with Tween-80
[3] = dose: 200.0 mg/kg/injection, schedule: Q01DX005 (ip), vehicle: saline with Tween-80
[4] = dose: 60.0 mg/kg/injection, schedule: Q01DX005 (ip), vehicle: saline with Tween-80
[5] = dose: 120.0 mg/kg/injection, schedule: Q01DX005 (ip), vehicle: saline with Tween-80
[6] = dose: 240.0 mg/kg/injection, schedule: Q01DX005 (ip), vehicle: saline with Tween-80
[7] = dose: 100.0 mg/kg/injection, schedule: Q01DX009 (ip), vehicle: saline with Tween-80
[8] = dose: 50.0 mg/kg/injection, schedule: Q01DX009 (ip), vehicle: saline with Tween-80

Q: With C/C=C/C/C=C/CCC(=O)C1OC1C(N)=O (centres undefined) as the compound, how does the T/C (dose: 8.0 mg/kg/injection, schedule: Q01DX009 (ip), vehicle: Klucel (hydroxypropylcellulose) (HPC)) read?
A: 93 % of control

Q: And the T/C (dose: 16.0 mg/kg/injection, schedule: Q01DX009 (ip), vehicle: Klucel (hydroxypropylcellulose) (HPC))?
A: 93 % of control

Q: And the T/C (dose: 32.0 mg/kg/injection, schedule: Q01DX009 (ip), vehicle: Klucel (hydroxypropylcellulose) (HPC))?
A: 102 % of control

Q: What about the T/C (dose: 64.0 mg/kg/injection, schedule: Q01DX009 (ip), vehicle: Klucel (hydroxypropylcellulose) (HPC)) of the same compound?
A: 93 % of control

Q: For OCC1OC2OCCOC2OC1CO (centres undefined), which T/C (dose: 100.0 mg/kg/injection, schedule: Q01DX001 (ip), vehicle: saline) is on record?
A: 102 % of control

Q: And the T/C (dose: 200.0 mg/kg/injection, schedule: Q01DX001 (ip), vehicle: saline)?
A: 96 % of control

Q: What about the T/C (dose: 400.0 mg/kg/injection, schedule: Q01DX001 (ip), vehicle: saline) of the same compound?
A: 102 % of control

Q: What does the source list for C=CCNC(=O)SCC?
A: T/C [1]: 107 % of control; T/C [2]: 116 % of control

Q: What does the source list for COc1c(Cl)cc(Cl)cc1C(=O)NO?
A: T/C [1]: 97 % of control; T/C [2]: 106 % of control; T/C [3]: 112 % of control

Q: Which T/C (dose: 25.0 mg/kg/injection, schedule: Q01DX005 (ip), vehicle: saline with Tween-80) does the source give for COc1ccc(NC(=O)Nc2ccc(-c3ccc(NC(=O)Nc4ccc(OC)cc4)c(C)c3)cc2C)cc1 here?
A: 100 % of control

Q: What about the T/C [1] of the same compound?
A: 87 % of control and 94 % of control

Q: What about the T/C [2] of the same compound?
A: 91 % of control

Q: And the T/C [3]?
A: 90 % of control

Q: For O=c1oc(-c2ccccc2)nnc1-c1ccccc1, which T/C (dose: 50.0 mg/kg/injection, schedule: Q01DX009 (ip), vehicle: Klucel (hydroxypropylcellulose) (HPC)) is on record?
A: 100 % of control

Q: What about the T/C (dose: 100.0 mg/kg/injection, schedule: Q01DX009 (ip), vehicle: Klucel (hydroxypropylcellulose) (HPC)) of the same compound?
A: 101 % of control

Q: And the T/C (dose: 200.0 mg/kg/injection, schedule: Q01DX009 (ip), vehicle: Klucel (hydroxypropylcellulose) (HPC))?
A: 107 % of control

Q: With OC1OCC(COc2ccc(Cl)cc2)OC1O (centres undefined) as the compound, how does the T/C [4] read?
A: 108 % of control and 118 % of control

Q: What about the T/C [5] of the same compound?
A: 111 % of control

Q: And the T/C [6]?
A: 123 % of control

Q: For O=c1cc(-c2ccccc2)[nH]c2c1CCCC2, which T/C [7] is on record?
A: 116 % of control

Q: What about the T/C (dose: 400.0 mg/kg/injection, schedule: Q01DX009 (ip), vehicle: saline with Tween-80) of the same compound?
A: 176 % of control and 186 % of control

Q: Which T/C (dose: 50.0 mg/kg/injection, schedule: Q01DX009 (ip), vehicle: gum acacia) does the source give for FC(F)(F)c1ccccc1NC(=S)Nc1ccc(I)cc1 here?
A: 92 % of control

Q: And the T/C (dose: 100.0 mg/kg/injection, schedule: Q01DX009 (ip), vehicle: gum acacia)?
A: 92 % of control

Q: And the T/C (dose: 200.0 mg/kg/injection, schedule: Q01DX009 (ip), vehicle: gum acacia)?
A: 89 % of control

Q: What does the source list for CCCCCCCCCCCCCCCC[N+](C)(C)Cc1ccccc1?
A: T/C (dose: 6.25 mg/kg/injection, schedule: Q04DX003 (ip), vehicle: saline): 98 % of control; T/C (dose: 12.5 mg/kg/injection, schedule: Q04DX003 (ip), vehicle: saline): 98 % of control; T/C (dose: 25.0 mg/kg/injection, schedule: Q04DX003 (ip), vehicle: saline): 100 % of control

Q: Which T/C (dose: 12.5 mg/kg/injection, schedule: Q01DX009 (ip), vehicle: saline) does the source give for [Cl][Pd]([Cl])([Cl])[Cl] here?
A: 86 % of control

Q: What about the T/C (dose: 25.0 mg/kg/injection, schedule: Q01DX009 (ip), vehicle: saline) of the same compound?
A: 96 % of control

Q: And the T/C (dose: 50.0 mg/kg/injection, schedule: Q01DX009 (ip), vehicle: saline)?
A: 95 % of control

Q: Which results are given for CN(C#N)CCc1ccccc1?
A: T/C [8]: 100 % of control; T/C [7]: 96 % of control

Q: Which T/C [4] does the source give for CCCCOC(=O)NC(=O)c1cc2cc(I)cc(I)c2oc1=O here?
A: 91 % of control

Q: And the T/C [5]?
A: 94 % of control

Q: And the T/C [6]?
A: 94 % of control

Q: What does the source list for O=C1NN=C(c2ccccc2)CS1?
A: T/C [8]: 98 % of control; T/C [7]: 101 % of control

Q: Which T/C (dose: 6.88 mg/kg/injection, schedule: Q01DX005 (ip), vehicle: water) does the source give for OCC1NCCC(O)C1OC1OC(CO)C(O)C(O)C1O (centres undefined) here?
A: 103 % of control

Q: What about the T/C (dose: 13.75 mg/kg/injection, schedule: Q01DX005 (ip), vehicle: water) of the same compound?
A: 100 % of control

Q: What about the T/C (dose: 27.5 mg/kg/injection, schedule: Q01DX005 (ip), vehicle: water) of the same compound?
A: 100 % of control

Q: And the T/C (dose: 55.0 mg/kg/injection, schedule: Q01DX005 (ip), vehicle: water)?
A: 99 % of control
